Test results published in ChEMBL document CHEMBL1201862, “PubChem BioAssay data set” (2004).
Active and inactive are the calls of the source.

Tests used:
[1] = target: T1, G-protein coupled receptor 55 (Homo sapiens, UniProt Q9Y2T6); assay: blockers of GPR55 signalling, imaged – imaging, image-based, counter-screen for GPR35 antagonist project, SAR follow-up (AID 2397); assay type: functional
[2] = tested on: INS1; assay: INS-1E survival protection against cytokine death – cell-based, luminescence, retest, dose response (AID 449756); assay type: functional; details: Rattus norvegicus;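 note: cell death triggered by IL-1 beta plus TNF-alpha plus IFN-gamma mixture; protective hits raise ATP signal compared with cytokine alone wells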
[3] = tested on: BJ; assay: BJ-TERT fibroblast viability loss – cell-based, RAS-independent, luminescence, dose response (AID 1933); assay type: functional; details: Homo sapiens
[4] = tested on: BJ; assay: cells; assay type: functional, cell-based; details: Homo sapiens
[5] = DRD fibroblast viability loss – cell-based, non-viral oncogenic, luminescence, dose response (AID 1934); assay type: functional; details: Homo sapiens
[6] = NIH-3T3 fibroblast cytotoxicity, dose response, cytotoxicity control, cell-based, fluorescence, Alamar Blue, secondary assay (AID 2327); assay type: functional;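 note: NIH-3T3 mouse fibroblasts cultured with fluconazole at 8 µg/mL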
[7] = fluconazole-exposed Candida albicans growth modulators – fluorescence, retest, confirmation (AID 2467); assay type: functional, cell-based
[8] = tested on: BJ; assay: BJ-TERT-LT-ST fibroblast viability loss – cell-based, RAS-independent, luminescence, dose response (AID 1935); assay type: functional; details: Homo sapiens;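 note: BJ fibroblasts immortalized with TERT plus LT and ST oncogenes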
[9] = target: T2, Tyrosine-protein phosphatase non-receptor type 22 (Homo sapiens, UniProt Q9Y2R2); assay type: functional
T2 sequence (Q9Y2R2 whole entry): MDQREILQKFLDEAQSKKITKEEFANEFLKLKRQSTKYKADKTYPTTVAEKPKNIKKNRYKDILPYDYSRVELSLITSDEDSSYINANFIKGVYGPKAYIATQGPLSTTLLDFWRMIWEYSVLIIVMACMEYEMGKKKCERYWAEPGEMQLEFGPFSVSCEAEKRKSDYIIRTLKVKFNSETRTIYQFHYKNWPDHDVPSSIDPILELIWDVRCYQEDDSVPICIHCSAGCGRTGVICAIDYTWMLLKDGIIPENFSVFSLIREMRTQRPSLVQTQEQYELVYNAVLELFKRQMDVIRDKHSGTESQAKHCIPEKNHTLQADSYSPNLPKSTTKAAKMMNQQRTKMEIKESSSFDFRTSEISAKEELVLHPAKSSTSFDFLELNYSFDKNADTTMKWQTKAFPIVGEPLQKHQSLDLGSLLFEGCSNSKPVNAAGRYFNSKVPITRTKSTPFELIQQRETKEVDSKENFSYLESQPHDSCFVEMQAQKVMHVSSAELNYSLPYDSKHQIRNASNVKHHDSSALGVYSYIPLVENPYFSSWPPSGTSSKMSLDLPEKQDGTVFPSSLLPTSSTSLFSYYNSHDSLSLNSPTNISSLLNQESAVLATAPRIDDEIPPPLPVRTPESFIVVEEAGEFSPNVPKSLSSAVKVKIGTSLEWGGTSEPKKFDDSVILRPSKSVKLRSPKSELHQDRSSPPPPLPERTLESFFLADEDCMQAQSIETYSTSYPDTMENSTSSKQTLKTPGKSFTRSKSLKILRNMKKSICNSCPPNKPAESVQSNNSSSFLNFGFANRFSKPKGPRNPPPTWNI

[10] = target: T3, Tyrosine-protein phosphatase non-receptor type 7 (Homo sapiens, UniProt P35236); assay type: functional
T3 sequence (P35236 whole entry): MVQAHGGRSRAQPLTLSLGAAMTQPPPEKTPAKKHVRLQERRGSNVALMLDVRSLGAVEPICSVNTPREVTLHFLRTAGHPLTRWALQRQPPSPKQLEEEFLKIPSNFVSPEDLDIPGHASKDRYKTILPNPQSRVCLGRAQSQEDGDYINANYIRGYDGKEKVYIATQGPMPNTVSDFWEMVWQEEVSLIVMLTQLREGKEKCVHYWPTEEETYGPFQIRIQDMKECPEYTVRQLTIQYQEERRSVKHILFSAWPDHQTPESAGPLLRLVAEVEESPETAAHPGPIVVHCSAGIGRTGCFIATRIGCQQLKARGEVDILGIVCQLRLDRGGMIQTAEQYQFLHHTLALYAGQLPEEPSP

[11] = target: T2, Tyrosine-protein phosphatase non-receptor type 22; assay type: functional; remark: listed apart in the source
[12] = target: Cytochrome P450 2D6 (Homo sapiens, UniProt P10635);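 note: CYP2D6 member of a cytochrome P450 panel assay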
Chain of Cytochrome P450 2D6 (P10635 whole entry): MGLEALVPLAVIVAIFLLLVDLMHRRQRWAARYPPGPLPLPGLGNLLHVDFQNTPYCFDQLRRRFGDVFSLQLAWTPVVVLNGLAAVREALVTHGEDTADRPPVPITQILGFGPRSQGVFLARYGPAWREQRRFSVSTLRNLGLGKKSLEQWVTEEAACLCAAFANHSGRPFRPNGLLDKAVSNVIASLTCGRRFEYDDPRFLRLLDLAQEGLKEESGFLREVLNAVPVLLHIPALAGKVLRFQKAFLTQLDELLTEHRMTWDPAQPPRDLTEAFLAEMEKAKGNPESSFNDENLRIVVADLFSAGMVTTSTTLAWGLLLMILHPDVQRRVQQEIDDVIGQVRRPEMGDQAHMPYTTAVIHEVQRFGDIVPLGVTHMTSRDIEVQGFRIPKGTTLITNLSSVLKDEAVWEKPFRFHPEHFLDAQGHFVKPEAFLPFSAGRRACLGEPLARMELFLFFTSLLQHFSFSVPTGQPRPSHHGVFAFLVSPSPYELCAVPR

[13] = target: T4, Cytochrome P450 1A2 (Homo sapiens, UniProt P05177);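 note: PubChem cytochrome P450 panel assay, CYP1A2 panel member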
T4 sequence (P05177 whole entry): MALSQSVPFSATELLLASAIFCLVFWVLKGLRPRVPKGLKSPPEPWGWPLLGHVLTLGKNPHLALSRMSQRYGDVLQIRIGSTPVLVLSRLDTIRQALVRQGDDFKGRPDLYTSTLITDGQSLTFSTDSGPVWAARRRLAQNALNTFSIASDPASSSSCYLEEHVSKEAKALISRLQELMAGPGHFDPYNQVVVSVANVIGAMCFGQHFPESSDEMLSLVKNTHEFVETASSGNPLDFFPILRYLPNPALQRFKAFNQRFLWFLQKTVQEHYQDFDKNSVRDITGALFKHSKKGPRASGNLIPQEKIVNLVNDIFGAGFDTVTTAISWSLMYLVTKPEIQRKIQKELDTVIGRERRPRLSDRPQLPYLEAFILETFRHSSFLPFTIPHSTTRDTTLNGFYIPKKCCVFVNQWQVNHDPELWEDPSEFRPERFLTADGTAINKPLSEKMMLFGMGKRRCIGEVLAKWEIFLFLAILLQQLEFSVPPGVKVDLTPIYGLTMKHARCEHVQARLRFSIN

[14] = target: Integrin alpha-4 (Homo sapiens, UniProt P13612); assay: allosteric modulators of alpha4 integrin VLA-4 – cell-based, LIBS antibody binding, flow cytometry, SAR follow-up (AID 488791); assay type: functional
Chain of Integrin alpha-4 (P13612 whole entry): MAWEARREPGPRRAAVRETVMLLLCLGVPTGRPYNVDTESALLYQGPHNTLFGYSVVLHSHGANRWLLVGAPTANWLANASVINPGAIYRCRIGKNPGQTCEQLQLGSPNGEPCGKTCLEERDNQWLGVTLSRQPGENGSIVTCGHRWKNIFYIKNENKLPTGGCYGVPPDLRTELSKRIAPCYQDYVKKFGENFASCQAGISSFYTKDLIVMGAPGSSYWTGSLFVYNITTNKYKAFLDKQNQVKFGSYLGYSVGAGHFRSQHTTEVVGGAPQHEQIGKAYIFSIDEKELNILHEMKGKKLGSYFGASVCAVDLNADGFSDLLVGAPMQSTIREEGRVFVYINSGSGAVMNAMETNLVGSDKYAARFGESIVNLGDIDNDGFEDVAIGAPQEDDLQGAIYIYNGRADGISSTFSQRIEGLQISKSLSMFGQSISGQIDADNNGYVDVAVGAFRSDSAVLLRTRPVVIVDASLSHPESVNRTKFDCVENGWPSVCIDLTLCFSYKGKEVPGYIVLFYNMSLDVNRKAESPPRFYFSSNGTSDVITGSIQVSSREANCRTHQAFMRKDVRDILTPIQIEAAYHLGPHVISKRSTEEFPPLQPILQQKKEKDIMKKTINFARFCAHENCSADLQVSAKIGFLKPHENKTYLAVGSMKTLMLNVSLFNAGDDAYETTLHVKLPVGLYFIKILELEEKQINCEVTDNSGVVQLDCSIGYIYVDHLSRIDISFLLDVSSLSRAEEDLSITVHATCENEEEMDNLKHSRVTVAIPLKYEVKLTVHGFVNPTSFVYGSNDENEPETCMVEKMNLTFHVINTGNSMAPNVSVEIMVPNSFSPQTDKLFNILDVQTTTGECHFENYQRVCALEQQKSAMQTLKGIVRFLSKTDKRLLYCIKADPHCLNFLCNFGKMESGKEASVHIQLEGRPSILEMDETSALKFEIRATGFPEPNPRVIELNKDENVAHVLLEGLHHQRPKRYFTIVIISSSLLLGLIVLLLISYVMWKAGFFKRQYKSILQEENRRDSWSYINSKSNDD

[15] = viability of PTEN-deleted HCT116 cells – cell-based, HCT116 PTEN knockout, dose response (AID 1047); assay type: functional;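 note: HCT116 colon tumor cells with PTEN knocked out; cells exposed to compound for 60 hours before readout; potency for loss of cell viability measured by luminescence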
[16] = target: T5, Sphingosine 1-phosphate receptor 4 (Homo sapiens, UniProt O95977); assay: Fluorescence dose response cell-based high throughput screening assay for antagonists of the Sphingosine 1-Phosphate Receptor 4 (S1P4). [Related pubchem assays: 1524 (Confirmation in triplicates.), 1510 (Primary screen.)]; assay type: functional
T5 sequence (O95977 whole entry): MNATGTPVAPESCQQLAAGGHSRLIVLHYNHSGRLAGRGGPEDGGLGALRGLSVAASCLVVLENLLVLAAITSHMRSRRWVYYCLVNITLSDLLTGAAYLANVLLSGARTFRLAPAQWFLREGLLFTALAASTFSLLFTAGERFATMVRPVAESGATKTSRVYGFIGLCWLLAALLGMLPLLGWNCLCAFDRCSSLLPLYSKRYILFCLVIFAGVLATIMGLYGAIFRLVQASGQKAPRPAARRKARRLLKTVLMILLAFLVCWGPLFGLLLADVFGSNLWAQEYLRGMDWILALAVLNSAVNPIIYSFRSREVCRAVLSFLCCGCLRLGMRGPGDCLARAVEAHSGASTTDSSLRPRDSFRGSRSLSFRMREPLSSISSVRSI

[17] = target: Sphingosine 1-phosphate receptor 5 (Homo sapiens, UniProt Q9H228); assay: Late stage counterscreen assay for S1P4 antagonists: Fluorescence dose response cell-based screening assay for antagonists of the Sphingosine 1-Phosphate Receptor 5 (S1P5). [Related pubchem assays (depositor defined):AID1510, AID1524, AID1692, AID1853, AID2332, AID489009, AID489017]; assay type: functional
[18] = target: T6, Sphingosine 1-phosphate receptor 1 (Homo sapiens, UniProt P21453); assay type: functional
T6 sequence (P21453 whole entry): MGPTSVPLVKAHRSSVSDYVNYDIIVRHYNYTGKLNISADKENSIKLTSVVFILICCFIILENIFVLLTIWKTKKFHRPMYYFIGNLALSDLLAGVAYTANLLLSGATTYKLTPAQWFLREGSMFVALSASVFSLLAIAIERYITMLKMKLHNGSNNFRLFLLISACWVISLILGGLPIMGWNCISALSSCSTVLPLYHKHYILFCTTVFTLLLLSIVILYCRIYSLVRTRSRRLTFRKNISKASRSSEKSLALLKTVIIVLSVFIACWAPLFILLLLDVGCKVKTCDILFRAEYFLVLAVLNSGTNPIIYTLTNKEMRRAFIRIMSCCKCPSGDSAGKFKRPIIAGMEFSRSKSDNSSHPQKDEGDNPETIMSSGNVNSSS

[19] = target: Sphingosine 1-phosphate receptor 2 (Homo sapiens, UniProt O95136); assay: Late stage counterscreen assay for S1P4 antagonists: Fluorescence dose response cell-based screening assay for antagonists of the Sphingosine 1-Phosphate Receptor 2 (S1P2). [Related pubchem assays (depositor defined):AID1510, AID1524, AID1692, AID1853, AID2332, AID489009, AID489017]; assay type: functional
Chain of Sphingosine 1-phosphate receptor 2 (O95136 whole entry): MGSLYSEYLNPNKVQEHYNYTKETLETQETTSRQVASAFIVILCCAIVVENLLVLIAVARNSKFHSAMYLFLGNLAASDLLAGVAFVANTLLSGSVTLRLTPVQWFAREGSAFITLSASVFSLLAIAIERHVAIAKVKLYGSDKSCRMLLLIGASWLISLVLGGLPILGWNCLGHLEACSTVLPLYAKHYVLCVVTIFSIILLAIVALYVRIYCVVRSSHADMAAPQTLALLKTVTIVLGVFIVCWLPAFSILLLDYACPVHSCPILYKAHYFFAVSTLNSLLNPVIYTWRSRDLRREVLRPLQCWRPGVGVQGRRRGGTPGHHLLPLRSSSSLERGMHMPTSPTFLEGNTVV

[20] = viability of HCT116 lacking mutant beta-catenin – cell-based, human colon tumor, dose response (AID 1045); assay type: functional;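 note: HCT116 colon tumor cells with beta catenin knocked out; cells exposed to compound for 60 hours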
[21] = target: Sphingosine 1-phosphate receptor 3 (Homo sapiens, UniProt Q99500); assay: Late stage counterscreen assay for S1P4 antagonists: Fluorescence dose response cell-based screening assay for antagonists of the Sphingosine 1-Phosphate Receptor 3 (S1P3). [Related pubchem assays (depositor defined):AID1510, AID1524, AID1692, AID1853, AID2332, AID489009, AID489017]; assay type: functional
Chain of Sphingosine 1-phosphate receptor 3 (Q99500 whole entry): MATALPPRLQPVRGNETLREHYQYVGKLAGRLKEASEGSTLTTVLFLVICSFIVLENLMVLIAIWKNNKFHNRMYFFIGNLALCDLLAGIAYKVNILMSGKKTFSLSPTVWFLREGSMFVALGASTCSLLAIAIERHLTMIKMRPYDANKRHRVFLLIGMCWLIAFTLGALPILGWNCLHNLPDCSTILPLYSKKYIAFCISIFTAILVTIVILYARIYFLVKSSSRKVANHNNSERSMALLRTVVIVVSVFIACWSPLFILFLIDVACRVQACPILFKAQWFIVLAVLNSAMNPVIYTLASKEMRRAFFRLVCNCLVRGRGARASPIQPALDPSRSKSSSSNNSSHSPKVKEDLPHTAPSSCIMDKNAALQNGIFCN

[22] = target: T1, G-protein coupled receptor 55; assay: selective activators of receptor GPR55 – imaging, U2OS cells, beta-arrestin-GFP redistribution, primary screen (AID 1961); assay type: functional
[23] = target: T7, Heat shock factor protein 1 (Mus musculus, UniProt P38532); assay: decrease of HSF1-responsive luciferase luminescence – cell-based, NIH3T3, dose retest, confirmation (AID 2382); assay type: functional;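 note: NIH3T3 fibroblasts with HSF1-driven luciferase reporter stressed by proteasome inhibitor MG132; luminescence from HSF1-driven luciferase expression after 8 hours of MG132 stress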
T7 sequence (P38532 whole entry): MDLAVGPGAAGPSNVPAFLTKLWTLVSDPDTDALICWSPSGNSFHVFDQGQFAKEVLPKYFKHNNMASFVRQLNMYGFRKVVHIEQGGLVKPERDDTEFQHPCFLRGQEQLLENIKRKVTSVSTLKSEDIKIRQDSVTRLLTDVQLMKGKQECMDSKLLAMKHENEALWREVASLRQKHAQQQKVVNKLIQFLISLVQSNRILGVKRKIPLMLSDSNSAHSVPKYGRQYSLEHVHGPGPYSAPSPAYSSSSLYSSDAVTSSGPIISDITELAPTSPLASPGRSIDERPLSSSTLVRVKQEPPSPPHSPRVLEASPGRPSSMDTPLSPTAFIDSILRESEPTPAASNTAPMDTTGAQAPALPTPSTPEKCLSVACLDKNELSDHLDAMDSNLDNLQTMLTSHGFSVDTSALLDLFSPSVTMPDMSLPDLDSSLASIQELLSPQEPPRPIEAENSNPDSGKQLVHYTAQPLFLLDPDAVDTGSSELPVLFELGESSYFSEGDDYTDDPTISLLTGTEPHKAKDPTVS

[24] = target: T5, Sphingosine 1-phosphate receptor 4; assay: Late stage fluorescence dose response cell-based screening assay for antagonists of the Sphingosine 1-Phosphate Receptor 4 (S1P4). [Related pubchem assays: 1524 (Confirmation screen (S1P4 antagonists).), 1510 (Primary screen (S1P4 antagonists).), 1853 (Summary AID (S1P4 antagonists).), 1692 (Dose response screen (S1P4 antagonists).)]; assay type: functional
[25] = target: T6, Sphingosine 1-phosphate receptor 1; assay: Late stage counterscreen assay for S1P4 antagonists: Fluorescence dose response cell-based screening assay for antagonists of the Sphingosine 1-Phosphate Receptor 1 (S1P1). [Related pubchem assays (depositor defined):AID1510, AID1524, AID1692, AID1853, AID2332, AID489009, AID489017]; assay type: functional
[26] = target: T5, Sphingosine 1-phosphate receptor 4; assay: Fluorescence dose response cell-based high throughput screening assay for agonists of the Sphingosine 1-Phosphate Receptor 4 (S1P4). [Related pubchem assays: 1509 (Primary screen.), 1523 (Confirmation screen in triplicates.)]; assay type: functional
[27] = target: T4, Cytochrome P450 1A2; remark: listed apart in the source
[28] = target: Cytochrome P450 2C19 (Homo sapiens, UniProt P33261); assay: Cytochrome panel assay with activity outcomes. Panel member name: p450-cyp2c19 Compounds with AC50 equal or less than 10 uM are considered active; assay type: functional; details: read-out: AC50
Chain of Cytochrome P450 2C19 (P33261 whole entry): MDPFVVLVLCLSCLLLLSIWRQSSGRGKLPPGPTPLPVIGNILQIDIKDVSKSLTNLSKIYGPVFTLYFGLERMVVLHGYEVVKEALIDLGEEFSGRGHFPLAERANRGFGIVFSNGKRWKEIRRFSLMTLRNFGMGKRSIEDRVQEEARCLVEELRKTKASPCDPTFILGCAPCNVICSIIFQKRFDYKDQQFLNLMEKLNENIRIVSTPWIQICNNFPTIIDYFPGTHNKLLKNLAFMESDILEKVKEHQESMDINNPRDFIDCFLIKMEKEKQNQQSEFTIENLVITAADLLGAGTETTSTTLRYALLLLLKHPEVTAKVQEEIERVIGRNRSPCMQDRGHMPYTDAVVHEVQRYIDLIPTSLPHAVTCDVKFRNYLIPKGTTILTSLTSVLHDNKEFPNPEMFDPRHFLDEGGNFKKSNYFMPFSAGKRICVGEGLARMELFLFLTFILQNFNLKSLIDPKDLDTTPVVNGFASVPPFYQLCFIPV

[29] = target: T6, Sphingosine 1-phosphate receptor 1; assay: Fluorescence-based counterscreen assay for S1P4 agonists: Cell-based dose response high throughput screening assay to identify agonists of the Sphingosine 1-Phosphate Receptor 1 (S1P1). [Related pubchem assays (depositor defined):AID1509, AID1523, AID1801, AID463107, AID463118, AID463119, AID463122, AID463123, AID463129, AID463225, AID504400, AID504460]; assay type: functional
[30] = target: SUMO E1/E2 (Homo sapiens, UniProt P63279+Q9UBE0+Q9UBT2); assay: SAR analysis of SUMOylation using HTRF in an in-Vitro dose response assay. [Related pubchem assays (depositor defined):AID2006, AID2011, AID2018, AID2069, AID2658]; assay type: functional
Chain of SUMO E1/E2 (Q9UBE0 whole entry): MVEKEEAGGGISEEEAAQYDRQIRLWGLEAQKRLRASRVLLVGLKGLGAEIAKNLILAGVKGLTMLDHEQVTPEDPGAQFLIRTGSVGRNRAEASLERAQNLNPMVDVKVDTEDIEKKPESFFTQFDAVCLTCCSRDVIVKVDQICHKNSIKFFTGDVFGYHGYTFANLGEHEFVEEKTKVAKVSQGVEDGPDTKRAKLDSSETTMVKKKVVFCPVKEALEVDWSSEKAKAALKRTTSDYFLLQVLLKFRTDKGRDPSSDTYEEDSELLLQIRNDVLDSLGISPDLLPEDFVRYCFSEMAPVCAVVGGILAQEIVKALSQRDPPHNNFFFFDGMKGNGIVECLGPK
Chain of SUMO E1/E2 (Q9UBT2 whole entry): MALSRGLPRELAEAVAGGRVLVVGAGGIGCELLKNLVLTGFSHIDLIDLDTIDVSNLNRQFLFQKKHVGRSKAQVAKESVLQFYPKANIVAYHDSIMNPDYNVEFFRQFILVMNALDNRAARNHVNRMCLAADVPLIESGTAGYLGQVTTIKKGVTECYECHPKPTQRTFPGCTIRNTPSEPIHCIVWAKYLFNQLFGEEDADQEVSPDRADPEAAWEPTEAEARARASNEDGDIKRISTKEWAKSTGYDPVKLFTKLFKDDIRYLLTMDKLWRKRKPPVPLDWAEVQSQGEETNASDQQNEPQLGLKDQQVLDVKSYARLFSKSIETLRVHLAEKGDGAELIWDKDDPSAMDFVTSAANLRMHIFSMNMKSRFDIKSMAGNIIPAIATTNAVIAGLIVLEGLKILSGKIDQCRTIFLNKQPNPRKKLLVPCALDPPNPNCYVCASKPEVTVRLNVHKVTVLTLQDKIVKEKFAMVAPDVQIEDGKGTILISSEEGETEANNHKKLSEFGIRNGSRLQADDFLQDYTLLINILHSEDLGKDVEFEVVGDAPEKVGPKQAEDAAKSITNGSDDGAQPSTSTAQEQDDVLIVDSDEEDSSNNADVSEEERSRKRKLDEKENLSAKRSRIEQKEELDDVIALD
Chain of SUMO E1/E2 (P63279 whole entry): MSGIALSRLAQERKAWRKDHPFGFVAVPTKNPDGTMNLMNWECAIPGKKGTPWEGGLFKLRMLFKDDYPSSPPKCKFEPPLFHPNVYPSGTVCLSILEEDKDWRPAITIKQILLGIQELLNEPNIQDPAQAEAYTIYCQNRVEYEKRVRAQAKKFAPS

T1 sequence (Q9Y2T6 whole entry): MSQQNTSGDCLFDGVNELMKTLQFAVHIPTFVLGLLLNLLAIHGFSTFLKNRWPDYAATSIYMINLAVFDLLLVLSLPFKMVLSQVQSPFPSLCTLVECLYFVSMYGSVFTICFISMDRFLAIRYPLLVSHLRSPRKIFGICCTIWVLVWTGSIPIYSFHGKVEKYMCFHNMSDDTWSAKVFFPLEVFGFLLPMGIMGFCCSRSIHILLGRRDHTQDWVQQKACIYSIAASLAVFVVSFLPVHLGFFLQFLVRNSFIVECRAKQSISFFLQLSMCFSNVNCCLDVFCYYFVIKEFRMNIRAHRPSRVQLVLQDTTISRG

Cn1cc(/C=C/c2cc[n+](C)cc2)c2cc(Cl)ccc21
IC50 [1]: 3.42 µM (active) | AC50 [2]: 4.33 µM (active) | EC50 [3]: 9.8 µM (active) | EC50 [4]: 16.2 µM (active) | EC50 [5]: 22.1 µM (inconclusive) | EC50 [6]: > 150 µM (inactive) | EC50 [7]: 1.29 µM (active) | EC50 [8]: > 150 µM (not active)

O=C(c1ccncc1)N1CCN(C(=O)c2ccncc2)CC1
IC50 [9]: > 79.4 µM (inactive) | IC50 [10]: > 79.4 µM (inactive) | IC50 [11]: > 79.4 µM (inactive)

COc1ccccc1CN1CC2(CCN(S(C)(=O)=O)CC2)C1
AC50 [12]: inconclusive | AC50 [13]: inconclusive

CCOC(=O)/C(=C\c1ccc(OC(F)F)cc1)C1=Nn2c(nnc2-c2ccc(Cl)cc2)SC1
EC50 [14]: 11.8 µM (active) | EC50 [15]: 10.2 µM (active) | AC50 [2]: 4.22 µM (active) | IC50 [16]: 0.168 µM (active) | IC50 [17]: 0.034 µM (active) | IC50 [18]: 6.1 µM (active) | IC50 [19]: 0.614 µM (active) | EC50 [20]: 9.67 µM (active) | IC50 [21]: 0.494 µM (active) | EC50 [22]: > 32 µM (inactive) | EC50 [23]: 6.62 µM (active) | IC50 [24]: 0.342 µM (active) | IC50 [25]: 0.351 µM (active)

COC(=O)c1c(-n2c(C)cc(C=O)c2C)sc2c1CCCC2
EC50 [26]: > 49.8 µM (not active) | AC50 [27]: 5.01 µM (inconclusive) | AC50 [28]: 0.794 µM (inconclusive) | EC50 [29]: > 49.8 µM (inactive)

S=c1[nH]nc(-c2cc(-c3ccccc3)[nH]n2)n1N=Cc1ccc(Cl)c(Cl)c1
IC50 [30]: > 100 µM (inactive)
